Active and inactive are the calls of the source.
Tests used:
[1] = target: T1, High affinity choline transporter 1 (Homo sapiens, UniProt Q9GZV3); experiment: human choline transporter blockers, potency – cell-based, 5-point CRC, membrane potential dye, dose response (AID 504840); assay type: functional
T1 sequence (Q9GZV3 whole entry): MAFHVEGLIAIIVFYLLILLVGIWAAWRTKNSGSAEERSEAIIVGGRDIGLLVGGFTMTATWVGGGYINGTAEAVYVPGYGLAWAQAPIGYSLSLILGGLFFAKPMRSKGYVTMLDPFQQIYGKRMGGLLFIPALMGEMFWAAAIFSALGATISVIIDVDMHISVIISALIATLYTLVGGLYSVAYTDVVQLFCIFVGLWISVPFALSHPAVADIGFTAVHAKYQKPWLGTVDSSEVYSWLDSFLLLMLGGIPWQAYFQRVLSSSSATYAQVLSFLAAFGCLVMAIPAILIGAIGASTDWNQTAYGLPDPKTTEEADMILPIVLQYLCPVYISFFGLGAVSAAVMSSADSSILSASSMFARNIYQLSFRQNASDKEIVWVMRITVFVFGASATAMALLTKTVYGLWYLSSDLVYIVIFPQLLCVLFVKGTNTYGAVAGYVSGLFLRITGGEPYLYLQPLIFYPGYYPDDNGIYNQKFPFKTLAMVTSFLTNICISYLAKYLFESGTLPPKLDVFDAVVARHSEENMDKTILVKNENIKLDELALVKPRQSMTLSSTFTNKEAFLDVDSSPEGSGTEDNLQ

[2] = target: T1, High affinity choline transporter 1; experiment: human choline transporter blockers, potency – cell-based, 10-point CRC, membrane potential dye, dose response (AID 588401); assay type: functional;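 note: membrane potential dye fluorescence of choline-evoked depolarization via CHT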
[3] = target: Dual specificity protein kinase CLK1 (Homo sapiens, UniProt P49759); experiment: inhibition of human CLK1 activity – biochemical, cherry-picked samples, selectivity assay for Dyrk1A inhibitor project, dose response (AID 588811)
Sequence of Dual specificity protein kinase CLK1 (P49759 whole entry): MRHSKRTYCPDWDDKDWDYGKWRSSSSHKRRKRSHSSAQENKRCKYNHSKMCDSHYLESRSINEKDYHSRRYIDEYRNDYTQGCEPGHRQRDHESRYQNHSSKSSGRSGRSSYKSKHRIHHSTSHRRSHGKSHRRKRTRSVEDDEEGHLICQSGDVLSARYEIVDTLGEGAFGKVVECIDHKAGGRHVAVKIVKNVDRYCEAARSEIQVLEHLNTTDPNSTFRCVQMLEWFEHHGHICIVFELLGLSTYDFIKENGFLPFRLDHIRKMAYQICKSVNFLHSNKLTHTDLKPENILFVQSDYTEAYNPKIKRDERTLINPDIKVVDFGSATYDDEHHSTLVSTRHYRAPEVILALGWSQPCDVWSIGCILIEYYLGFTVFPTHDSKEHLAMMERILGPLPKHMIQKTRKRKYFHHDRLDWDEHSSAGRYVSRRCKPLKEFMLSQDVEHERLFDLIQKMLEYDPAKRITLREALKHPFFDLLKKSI

[4] = target: Dual specificity tyrosine-phosphorylation-regulated kinase 1A (Rattus norvegicus, UniProt Q63470); assay type: biochemical, Homo sapiens
[5] = target: DNA damage-inducible transcript 3 protein (Mus musculus, UniProt P35639); assay type: functional, Cricetulus griseus
Sequence of DNA damage-inducible transcript 3 protein (P35639 whole entry): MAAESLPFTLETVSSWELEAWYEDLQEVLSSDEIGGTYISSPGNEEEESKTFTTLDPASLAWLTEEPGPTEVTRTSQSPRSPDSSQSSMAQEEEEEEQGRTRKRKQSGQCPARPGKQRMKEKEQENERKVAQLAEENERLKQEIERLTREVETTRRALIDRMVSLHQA

[6] = Luminescence Cell-Based Dose Response HTS to Identify Activators of Luciferase Translation or Activity in H4 […] Cells. [Related pubchem assays: 1829 (Project Summary), 1814 (Primary HTS)]; assay type: functional
[7] = target: X-box-binding protein 1 (Homo sapiens, UniProt P17861); assay type: functional, Cricetulus griseus;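 note: confirmatory dose-response counter-screen serving a CHOP assay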
Sequence of X-box-binding protein 1 (P17861 whole entry): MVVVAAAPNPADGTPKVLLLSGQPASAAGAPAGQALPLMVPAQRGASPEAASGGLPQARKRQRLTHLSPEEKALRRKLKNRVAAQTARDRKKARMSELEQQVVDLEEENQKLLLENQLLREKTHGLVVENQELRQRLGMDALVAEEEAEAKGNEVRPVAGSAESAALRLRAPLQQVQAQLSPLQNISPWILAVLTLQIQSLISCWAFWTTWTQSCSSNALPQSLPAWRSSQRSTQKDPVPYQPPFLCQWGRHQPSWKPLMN

[8] = test system: HEK293; experiment: cells; conditions: Homo sapiens
[9] = Luminescence Cell-Based Dose Confirmation HTS to Identify Activators of 5'UTR Stem-Loop Driven Alpha-Synuclein mRNA Translation in H4 Neuroglioblastoma Cells. [Related pubchem assays: 1829 (Project Summary), 1814 (Primary HTS)]; assay type: functional
[10] = test system: H4; experiment: Luminescence Cell-Based Dose Response HTS to Identify Activators of 5'UTR Stem-Loop Driven Prion Protein mRNA Translation in H4 Neuroglioblastoma Cells. [Related pubchem assays: 1829 (Project Summary), 1814 (Primary HTS)]; assay type: functional; conditions: Homo sapiens
[11] = test system: HEK293; experiment: cells; conditions: Homo sapiens; remark: listed apart in the source
[12] = test system: Vero; experiment: cells; assay type: functional; conditions: Chlorocebus sabaeus
[13] = target: T2, Rac GTPase-activating protein 1 (Homo sapiens, UniProt Q9H0H5); experiment: blockers of MgcRacGAP-driven Rac1 GTP hydrolysis – biochemical, ADP Hunter fluorescence, primary and confirmatory, confirmation (AID 624330); assay type: functional
T2 sequence (Q9H0H5 whole entry): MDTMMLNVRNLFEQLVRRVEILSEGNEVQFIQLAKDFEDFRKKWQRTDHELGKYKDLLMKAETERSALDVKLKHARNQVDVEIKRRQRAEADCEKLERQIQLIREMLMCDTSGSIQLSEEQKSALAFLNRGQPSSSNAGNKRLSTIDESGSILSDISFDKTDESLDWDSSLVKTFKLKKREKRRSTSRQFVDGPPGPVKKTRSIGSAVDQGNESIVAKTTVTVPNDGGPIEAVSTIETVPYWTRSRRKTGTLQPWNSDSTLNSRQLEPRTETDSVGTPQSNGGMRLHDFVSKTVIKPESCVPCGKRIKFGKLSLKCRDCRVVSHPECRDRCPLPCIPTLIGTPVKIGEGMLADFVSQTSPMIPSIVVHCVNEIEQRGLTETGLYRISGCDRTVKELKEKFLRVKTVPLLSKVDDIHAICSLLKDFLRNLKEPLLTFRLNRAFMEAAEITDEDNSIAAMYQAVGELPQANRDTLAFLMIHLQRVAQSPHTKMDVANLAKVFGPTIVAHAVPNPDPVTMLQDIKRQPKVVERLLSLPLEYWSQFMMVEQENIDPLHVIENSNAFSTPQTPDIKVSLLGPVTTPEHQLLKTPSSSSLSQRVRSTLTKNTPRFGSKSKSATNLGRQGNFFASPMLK

[14] = HEK-293T viability loss after treatment – luminescence, T-cell screen hits, cytotoxicity control for TCR NF-kB inhibitor project, dose response (AID 489026); assay type: functional, cell-based;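 note: cells exposed to compound about 14 hours before the viability readout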
[15] = viability loss in HeLa cells – cytotoxicity control for MgcRacGAP inhibitor project, dose response (AID 624300); assay type: functional
[16] = target: T3, Cytochrome P450 3A4 (Homo sapiens, UniProt P08684);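 note: CYP3A4 tested as one member of a cytochrome P450 panel screen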
T3 sequence (P08684 whole entry): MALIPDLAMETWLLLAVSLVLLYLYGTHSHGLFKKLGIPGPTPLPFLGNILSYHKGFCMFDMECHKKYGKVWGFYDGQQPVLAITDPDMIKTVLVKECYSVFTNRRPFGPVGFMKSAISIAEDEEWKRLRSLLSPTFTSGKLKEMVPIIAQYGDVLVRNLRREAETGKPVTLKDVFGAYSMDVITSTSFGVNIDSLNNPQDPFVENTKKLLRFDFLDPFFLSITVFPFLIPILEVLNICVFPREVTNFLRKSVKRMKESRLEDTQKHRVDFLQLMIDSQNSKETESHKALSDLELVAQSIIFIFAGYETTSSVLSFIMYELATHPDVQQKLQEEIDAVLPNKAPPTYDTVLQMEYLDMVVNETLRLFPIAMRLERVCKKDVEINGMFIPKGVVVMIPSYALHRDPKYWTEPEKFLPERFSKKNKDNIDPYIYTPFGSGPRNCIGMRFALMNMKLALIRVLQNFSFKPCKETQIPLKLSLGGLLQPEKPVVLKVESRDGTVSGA

[17] = target: Cytochrome P450 2C19 (Homo sapiens, UniProt P33261); experiment: Cytochrome panel assay with activity outcomes. Panel member name: p450-cyp2c19 Compounds with AC50 equal or less than 10 uM are considered active; assay type: functional
Sequence of Cytochrome P450 2C19 (P33261 whole entry): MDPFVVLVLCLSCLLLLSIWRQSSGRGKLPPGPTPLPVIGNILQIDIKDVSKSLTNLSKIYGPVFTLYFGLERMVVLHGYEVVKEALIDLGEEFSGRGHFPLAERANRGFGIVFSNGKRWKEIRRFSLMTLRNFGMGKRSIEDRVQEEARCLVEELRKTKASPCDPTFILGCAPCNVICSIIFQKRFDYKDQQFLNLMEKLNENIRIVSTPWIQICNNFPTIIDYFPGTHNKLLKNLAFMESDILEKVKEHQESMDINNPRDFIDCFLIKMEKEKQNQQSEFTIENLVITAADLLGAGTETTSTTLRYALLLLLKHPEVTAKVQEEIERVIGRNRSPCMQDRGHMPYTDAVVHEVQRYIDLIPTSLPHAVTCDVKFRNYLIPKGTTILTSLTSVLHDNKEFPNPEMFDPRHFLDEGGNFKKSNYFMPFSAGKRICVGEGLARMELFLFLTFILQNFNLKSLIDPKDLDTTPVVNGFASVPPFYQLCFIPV

[18] = target: Cytochrome P450 2D6 (Homo sapiens, UniProt P10635);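 note: CYP2D6 member of a cytochrome P450 panel assay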
Sequence of Cytochrome P450 2D6 (P10635 whole entry): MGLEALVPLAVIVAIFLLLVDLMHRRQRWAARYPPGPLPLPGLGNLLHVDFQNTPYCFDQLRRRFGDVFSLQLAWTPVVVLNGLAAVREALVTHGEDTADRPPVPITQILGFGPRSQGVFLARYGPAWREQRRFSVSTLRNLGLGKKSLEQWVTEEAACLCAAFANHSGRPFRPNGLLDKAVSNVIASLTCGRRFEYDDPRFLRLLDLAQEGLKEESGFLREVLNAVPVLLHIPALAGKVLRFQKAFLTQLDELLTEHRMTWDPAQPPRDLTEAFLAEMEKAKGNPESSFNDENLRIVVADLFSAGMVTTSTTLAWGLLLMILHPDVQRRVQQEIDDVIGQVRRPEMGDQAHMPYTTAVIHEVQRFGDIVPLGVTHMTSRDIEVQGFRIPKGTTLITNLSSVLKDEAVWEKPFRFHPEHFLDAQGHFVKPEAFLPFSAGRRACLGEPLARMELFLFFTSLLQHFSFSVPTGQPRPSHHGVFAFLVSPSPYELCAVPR

[19] = target: Cytochrome P450 2C9 (Homo sapiens, UniProt P11712)
Sequence of Cytochrome P450 2C9 (P11712 whole entry): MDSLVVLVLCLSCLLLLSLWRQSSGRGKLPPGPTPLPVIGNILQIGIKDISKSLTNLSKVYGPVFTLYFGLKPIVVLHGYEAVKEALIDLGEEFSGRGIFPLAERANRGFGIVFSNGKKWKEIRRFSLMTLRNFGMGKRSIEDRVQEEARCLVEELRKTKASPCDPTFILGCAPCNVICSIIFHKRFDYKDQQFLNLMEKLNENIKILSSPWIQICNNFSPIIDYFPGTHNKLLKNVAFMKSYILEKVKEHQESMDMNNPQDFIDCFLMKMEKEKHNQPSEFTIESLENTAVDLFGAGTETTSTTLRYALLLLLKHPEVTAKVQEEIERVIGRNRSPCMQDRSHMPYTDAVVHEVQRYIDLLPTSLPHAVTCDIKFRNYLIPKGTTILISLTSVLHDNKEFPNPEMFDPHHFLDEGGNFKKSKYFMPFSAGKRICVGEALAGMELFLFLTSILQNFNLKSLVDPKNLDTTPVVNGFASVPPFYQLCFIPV

[20] = test system: HeLa; experiment: ATP-based viability loss in HeLa cells – cell-based, CellTiter-Glo luminescence, cherry-pick samples, cytotoxicity control for MITF activator project, dose response (AID 540259); assay type: functional; conditions: Homo sapiens
[21] = blockers of CAL PDZ–TMR peptide complex – biochemical, fluorescence polarization, untagged CAL PDZ, cherry-pick, set 2, dose response (AID 602254); assay type: functional
[22] = decrease of insulin promoter-GFP reporter – imaging, high-content screening, mouse beta cells (AID 1628); assay type: functional; conditions: MIN6
[23] = MIN6 cell viability loss – mouse insulinoma, cytotoxicity control, dose response (AID 2122); assay type: functional;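 note: confirmatory high-throughput counterscreen run to flag cytotoxic compounds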
[24] = target: Ras and Rab interactor 1/Tyrosine-protein kinase ABL1 (Homo sapiens, UniProt P00519+Q13671); assay type: functional;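 note: biochemical TR-FRET dose-response test measuring inhibition of binding between Rin1 and Abl proteins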
[25] = target: T3, Cytochrome P450 3A4; remark: listed apart in the source
[26] = target: T4, Insulin-degrading enzyme (Homo sapiens, UniProt P14735); experiment: recombinant IDE activation, cell-free – biochemical, fluorescence polarization, counter-screen for IDE activator project, dose response (AID 588681)
T4 sequence (P14735 whole entry): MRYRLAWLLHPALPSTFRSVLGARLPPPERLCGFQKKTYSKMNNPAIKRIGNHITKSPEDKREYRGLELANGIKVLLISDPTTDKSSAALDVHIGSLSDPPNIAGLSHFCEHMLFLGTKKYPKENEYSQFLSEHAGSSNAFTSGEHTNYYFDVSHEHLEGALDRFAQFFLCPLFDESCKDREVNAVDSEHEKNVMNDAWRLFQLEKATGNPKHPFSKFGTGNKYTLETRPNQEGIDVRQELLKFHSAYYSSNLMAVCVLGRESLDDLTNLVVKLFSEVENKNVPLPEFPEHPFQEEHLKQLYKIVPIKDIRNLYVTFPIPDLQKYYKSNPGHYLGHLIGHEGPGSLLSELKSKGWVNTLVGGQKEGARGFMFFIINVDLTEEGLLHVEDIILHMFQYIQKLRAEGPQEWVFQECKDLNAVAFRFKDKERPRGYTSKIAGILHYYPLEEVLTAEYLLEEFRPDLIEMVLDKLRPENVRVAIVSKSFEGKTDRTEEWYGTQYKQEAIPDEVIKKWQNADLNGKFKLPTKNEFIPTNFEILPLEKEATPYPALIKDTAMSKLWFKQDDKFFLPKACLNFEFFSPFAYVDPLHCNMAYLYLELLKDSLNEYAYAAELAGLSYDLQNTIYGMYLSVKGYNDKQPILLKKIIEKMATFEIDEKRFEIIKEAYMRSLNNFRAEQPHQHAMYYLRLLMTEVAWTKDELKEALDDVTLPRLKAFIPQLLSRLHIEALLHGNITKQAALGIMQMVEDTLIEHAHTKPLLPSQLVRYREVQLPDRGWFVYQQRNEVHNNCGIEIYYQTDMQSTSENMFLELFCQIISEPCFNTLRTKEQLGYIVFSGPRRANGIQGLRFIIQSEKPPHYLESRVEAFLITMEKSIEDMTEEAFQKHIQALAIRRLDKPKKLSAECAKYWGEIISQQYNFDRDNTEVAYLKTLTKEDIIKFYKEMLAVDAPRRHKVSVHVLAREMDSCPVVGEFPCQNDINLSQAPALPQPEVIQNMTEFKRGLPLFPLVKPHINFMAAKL

[27] = test system: HEK293; experiment: membrane integrity loss in HEK cells – cell-based, fluorescence, cytotoxicity control for IDE activator project, dose response (AID 588440); assay type: functional; conditions: Homo sapiens;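 note: cytotoxicity by LDH release measuring loss of membrane integrity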
[28] = A Cell Based Secondary Assay To Explore Cytotoxicity of Compounds that Sensitize Mycobacterium Tuberculosis to Beta-Lactam Antibiotics.; assay type: functional
[29] = test system: HEK293; experiment: optical interference in Abeta FP readout, dose response, artefact control for IDE activator project, biochemical, fluorescence polarization (AID 588442); assay type: functional, cell-based; conditions: Homo sapiens
[30] = target: Melanocortin receptor 4 (Homo sapiens, UniProt P32245); assay type: functional, cell-based;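 note: Cell-based assay with luminescence read-out, confirmatory dose-response testing for agonist activity of biased ligands at MC4R; human U2OS cells with tagged receptor and beta-arrestin; potency of agonists that increase receptor coupling to beta-arrestin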
Sequence of Melanocortin receptor 4 (P32245 whole entry): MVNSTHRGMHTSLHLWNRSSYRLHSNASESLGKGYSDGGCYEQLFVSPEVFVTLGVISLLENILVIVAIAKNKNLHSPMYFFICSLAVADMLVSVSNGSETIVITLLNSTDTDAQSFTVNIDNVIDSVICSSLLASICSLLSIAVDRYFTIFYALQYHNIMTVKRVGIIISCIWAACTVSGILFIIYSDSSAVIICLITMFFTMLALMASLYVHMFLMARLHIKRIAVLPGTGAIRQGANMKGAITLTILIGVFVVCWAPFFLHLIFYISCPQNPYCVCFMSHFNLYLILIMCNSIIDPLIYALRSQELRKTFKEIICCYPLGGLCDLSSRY

[31] = target: T4, Insulin-degrading enzyme; experiment: cellular IDE activation of Abeta substrate cleavage – fluorescence polarization, HEK cells, dose response (AID 588439); assay type: functional, cell-based
[32] = Trypanosoma cruzi growth suppression in host cells – NIH3T3 host cells, beta-gal luminescence, confirmation (AID 2044); assay type: functional, cell-based;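 note: intracellular parasites grown in NIH/3T3 mouse fibroblasts as host cells; luminescent beta-galactosidase reporter signal from transgenic T. cruzi replicating inside host cells; inhibitors lower the luminescence signal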
[33] = target: T5, Microphthalmia-associated transcription factor (Homo sapiens, UniProt O75030); experiment: reducers of TRPM1 reporter luminescence, concentration series – cell-based, SK-MEL-5, cherry-picked, set 3, MITF inhibitor project, dose response (AID 493073); assay type: functional;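 note: SK-MEL-5 melanoma cells with luciferase driven by the MITF target TRPM1 promoter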
T5 sequence (O75030 whole entry): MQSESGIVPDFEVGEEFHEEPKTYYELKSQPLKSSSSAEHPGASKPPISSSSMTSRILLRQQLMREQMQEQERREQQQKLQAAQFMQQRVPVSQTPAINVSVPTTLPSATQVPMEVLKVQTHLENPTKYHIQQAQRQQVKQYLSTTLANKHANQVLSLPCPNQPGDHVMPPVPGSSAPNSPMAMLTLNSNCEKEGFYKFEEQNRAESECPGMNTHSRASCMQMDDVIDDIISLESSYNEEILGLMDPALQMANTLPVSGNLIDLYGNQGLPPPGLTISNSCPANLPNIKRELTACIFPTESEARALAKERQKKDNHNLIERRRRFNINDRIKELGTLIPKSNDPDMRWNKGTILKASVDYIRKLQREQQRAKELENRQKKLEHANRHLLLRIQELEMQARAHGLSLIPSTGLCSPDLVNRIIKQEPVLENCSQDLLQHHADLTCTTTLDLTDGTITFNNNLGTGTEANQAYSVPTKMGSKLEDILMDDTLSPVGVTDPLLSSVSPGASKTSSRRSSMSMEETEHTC

[34] = NIH3T3 cell viability loss – ATP luminescence, mouse fibroblasts, counter-screen, dose response (AID 2010); assay type: functional, cell-based;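 note: cells exposed to compound for about 90 hours before reading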
[35] = cells
[36] = test system: A-375; experiment: proliferation inhibition in MITF-low A375 cells – cell-based, cherry-pick samples, set 2, counter-screen for MITF modulator project, dose response (AID 540335); assay type: functional; conditions: Homo sapiens

CCn1c(SCCC(C)C)nnc1-c1c[nH]c2ccccc12
IC50 [1]: 0.955 µM (active) | IC50 [2]: 2.41 µM (active)

Cc1nc(NC(=O)c2ccccc2)sc1-c1csc(N)n1
AC50 [3]: 1.35 µM (active) | AC50 [4]: 1.26 µM (active)

COc1ccc(/C=C(/C(=O)c2cccs2)N2C=CC=CC2=C(C#N)C#N)cc1
Absolute IC50 (CHOP) [5]: 10 µM | EC50 [6]: > 120 µM (not active) | Absolute IC50 (XBP1) [7]: 10 µM | EC50 [8]: > 59.6 µM (inactive) | EC50 [9]: > 120 µM (not active) | AC50 [4]: 8.18 µM (active) | EC50 [10]: > 120 µM (not active) | EC50 [11]: > 59.6 µM (inactive) | CC50 [12]: > 25 µM (active)

COc1cc(/C=C2/SC(Nc3ccc(O)cc3)=NC2=O)ccc1O
IC50 [13]: 20 µM (active) | IC50 [14]: 42.7 µM (inactive) | CC50 [15]: 61.1 µM (active)

CCCCNC(=O)c1cc2nc3c(c(C(F)(F)F)n2n1)CCc1ccccc1-3
AC50 [16]: 7.94 µM (inconclusive) | AC50 ([17]; read-out: AC50): 15.8 µM (inconclusive) | AC50 [18]: inconclusive | AC50 [19]: 0.398 µM (inconclusive)

COc1ccc(C(=O)c2c[nH]c3ccccc23)cc1
AC50 [20]: 41.9 µM (active)

COc1ccccc1-c1ccc2c(c1)C(C)(Cc1ccc(F)c(Cl)c1)C(=O)N2 (stereo not given)
EC50 [8]: > 59.6 µM (inactive) | EC50 [11]: > 59.6 µM (inactive)

COc1cc(NC(=O)C2CCCN(S(=O)(=O)c3cccc4nsnc34)C2)cc(OC)c1 (stereo not given)
AC50 [21]: 118 µM (active)

O=c1c2ccccc2oc2c1ccc1ccccc12
AC50 [20]: 32.3 µM (active)

CCOC(=O)N1CCN(C(=O)C2CCN(c3ncnc4c3sc3cccc(F)c34)CC2)CC1
IC50 [22]: 1.49 µM (active) | IC50 [1]: 13.8 µM (active) | IC50 [23]: 1.05 µM (active) | IC50 [24]: 14.2 µM (inactive)

COc1ccc(-c2nccc(NCc3ccc(C)cc3)n2)cc1
AC50 [3]: 0.00697 µM (active)

COc1cccc(NC(=O)CSc2nc3c(c(-c4ccco4)c2C#N)CCCC3)c1
AC50 [17]: inconclusive | AC50 [18]: inconclusive | AC50 [25]: inconclusive

Cc1cc(C)c2sc(N(CCCN(C)C)C(=O)COc3ccc(Cl)cc3)nc2c1
EC50 [26]: > 54.7 µM (inactive) | IC50 [27]: 26.2 µM (inactive) | CC50 [28]: > 40 µM (active) | EC50 [29]: > 55.9 µM (inactive) | EC50 [30]: > 89.2 µM (inactive) | EC50 [31]: > 54.7 µM (inactive)

CN(Cc1ccccc1)C1=CC(=[N+]2CCCCC2)CC(C)(C)C1
EC50 [32]: < 0.1 µM (active) | AC50 [33]: 2.46 µM (active) | EC50 [34]: > 60 µM (not active) | EC50 [35]: 0.032 µM (active) | AC50 [36]: 84.3 µM (active) | IC50 [14]: > 80 µM (inactive)

— ChEMBL document CHEMBL1201862, “PubChem BioAssay data set” (2004)
